How the values were obtained:
Solubility in n-hexane = conditions: in n-hexane at 25° C. and 0.1 MPa
Experimental: Hereinafter, “a solubility in n-hexane at 25° C. and 0.1 MPa” of a pigment is also simply referred to as “solubility”.
The solubility of each azomethine pigment in n-hexane, which is a non-polar solvent, was measured by the following method.
Each pigment was dissolved in n-hexane that had been heated to 50° C. to prepare a saturated solution, and then the saturated solution obtained was left to stand in an environment of 0.1 MPa at 25° C. for 1 hour. The precipitated pigment was filtered and the precipitation amount was measured, thereby calculating the solubility (% by mass) of each pigment in n-hexane at 25° C. and 0.1 MPa.

[1] = Absorption maximum wavelength, absorbance and absorption coefficient of colored solution; format: physicochemical; conditions: n-hexane colored solution; for Absorption coefficient (ε): calculated in accordance with the Lambert-Beer law
Experimental: Azomethine pigments (preparing the above exemplified compounds D-1, D-5, D-11, D-20, D-26, D-38, D-43, D-46, D-49, D-55, D-56, D-57 and D-65 shown in the following Table) and n-hexane as an organic solvent were mixed to prepare a 15% by mass azomethine pigment-n-hexane solution (colored composition), thereby manufacturing 13 kinds of colored solutions.
For the colored solution (colored composition), the absorption maximum wavelength (λmax) and the absorbance were measured with a visible light absorbance spectrometer (UV-1800PC, manufactured by Shimadzu Corporation) and the absorption coefficient (ε) was calculated in accordance with the Lambert-Beer law.

[2] = Measurement of relative permittivity; format: physicochemical; conditions: pigment itself, extrapolated from 5, 7.5 and 10% by mass solutions in n-hexane; 20° C., 40% RH, 1 kHz
Experimental: The relative permittivity is a value obtained by injecting the colored composition into a glass cell having a cell gap of 10 μm to which an indium tin oxide (ITO) transparent electrode is attached and measuring, at 20° C. and 40% RH, the electric capacitance of the cell with the colored composition thus-obtained using a TYPE 2353LCR METER (measuring frequency: 1 kHz) manufactured by NF Co., Ltd.
The azomethine pigments shown in the following Table 7 were prepared and solutions of 5% by mass, 7.5% by mass and 10% by mass of each pigment dissolved in n-hexane (all were colored solutions) were prepared. Each colored solution obtained was injected into a glass cell having a cell gap of 10 μm to which an indium tin oxide (ITO) transparent electrode was attached. For each of the glass cells, the electric capacitance was measured (measuring frequency: 1 kHz). Further, a cell for reference was prepared by injecting only n-hexane into a glass cell which was the same kind of glass cell as described above, and the electric capacitance of the cell for reference was also measured. The electric capacitance of the cell obtained was measured at 20° C. and 40% RH using a type 2353LCR meter (measuring frequency: 1 kHz) manufacture by NF Co., Ltd.
The relative permittivity of each colored solution was obtained by the above measurement, and the relative permittivity of each azomethine pigment itself was calculated from the above relative permittivity by extrapolation.

[3] = Measurement of dynamic viscosity; format: physicochemical; conditions: solution of 10% by mass of pigment in decane
Experimental: Note that, the dynamic viscosity is a value measured by adjusting a solution at 10% by mass of the pigment in decane to 20° C. using a viscometer (500 TYPE, manufactured by Toki Sangyo Co., Ltd.).
For the azomethine pigments shown in the following Table 7, a solution of 10% by mass of each pigment in decane was prepared and an R-type viscometer (500 TYPE, manufactured by Toki Sangyo Co., Ltd.) was used to measure the viscosity thereof at 20° C.

Compound	Solubility (% by mass) (Solubility in n-hexane)	Absorption maximum wavelength [λmax] [1] [nm]	Absorption coefficient (ε) [1]	Relative permittivity [2]	Viscosity (20° C.) [3] [mPa · s]
CCCCCCCCN(CCCCCCCC)c1ccc(N=C2C(=O)N(c3ccccc3)N=C2C)c(C)c1 [Pigment D-1]	9.5 % by mass	500	6.05 × 10^4	8.6	1.3
CCCCCCCCN1N=C(C(C)(C)C)C(=Nc2ccc(N(CC)CC)cc2C)C1=O [Pigment D-5]	8.5 % by mass	502	5.20 × 10^4	–	–
CCCCCCN(CCCCCC)c1ccc(N=C2C(=O)N(c3ccccc3)N=C2C(C)(C)C)c(C)c1 [Pigment D-11]	1.1 % by mass	502	5.60 × 10^4	–	–
CCCCCCCCOc1cc(N(CCCC)CCCC)ccc1N=C1C(=O)ON=C1c1ccccc1 [Pigment D-20]	–	480	4.80 × 10^4	8.8	1.2
CCCCCCCCNC(=O)C1=CC(=Nc2ccc(N(CCCCCCCC)CCCCCCCC)cc2)C=C(C)C1=O [Pigment D-26]	–	626	2.8 × 10^4	6	1.4
CCCCCCCCCCCCCCCCNC(=O)C1=CC(=Nc2ccc(N(CC)CC)cc2CC)c2ccccc2C1=O [Pigment D-38]	–	630	2.9 × 10^4	4.4	1.5
CCCCCCCCCCCCCCCCCCNC(=O)C1=CC(=Nc2ccc(N(CC)CC)cc2OC)c2ccccc2C1=O [Pigment D-43]	–	658	2.6 × 10^4	4.7	1.5
CCCCCCN(CCCCCC)c1ccc(N=C2C=C(C(=O)Nc3ccccc3)C(=O)c3ccccc32)c(C)c1 [Pigment D-46]	–	635	2.8 × 10^4	–	–
CCCCCCCCN(CCCCCCCC)c1ccc(N=C2C(C(C)(C)C)=Nn3nc(-c4ccccc4)nc32)c(C)c1 [Pigment D-49]	11 % by mass	518	7.2 × 10^4	6.7	1.2

Next, values leading:

Solubility (% by mass) (Solubility in n-hexane)	Absorption maximum wavelength [λmax] [1] [nm]	Absorption coefficient (ε) [1]	Relative permittivity [2]	Viscosity (20° C.) [3] [mPa · s]	Compound
3.5 % by mass	550	7.2 × 10^4	–	–	CCCCCCOc1cc(N(CCCCCC)CCCCCC)ccc1N=C1C(C#N)=Nn2nc(C(C)(C)C)nc21 [Pigment D-56]
12.3 % by mass	540	7.55 × 10^4	6.2	1.2	CCCCCCCCN1CCc2cc(/N=C3/C(C)=Nn4nc(C(C)CNC(=O)C(CCCCCC)Oc5ccc(C(C)(C)CC)cc5C(C)(C)CC)nc43)ccc21 [Pigment D-57]
≥ 15.0 % by mass	725	6.8 × 10^4	–	–	CCCCCCN(CCCCCC)c1cc(C)c(N=C2C(C#N)=C(C(=O)OC3C(C(C)(C)C)CC(C)CC3C(C)(C)C)c3nc(C(C)(C)C)nn32)c(C)c1 [Pigment D-65]
0.05 or less % by mass	–	–	–	–	CCN(CC)c1ccc(N=C2C(=O)N(c3ccccc3)N=C2C)c(C)c1 [Pigment D-101, reference compound]
≤ 0.05 % by mass	–	–	–	–	CCN(CC)c1ccc(N=C2C(=O)ON=C2C(C)(C)C)cc1 [Pigment D-102, reference compound]
≤ 0.05 % by mass	–	–	–	–	CCN(CC)c1ccc(N=C2C=C(NC(C)=O)C(=O)C(Cl)=C2C)c(C)c1 [Pigment D-103, reference compound]
≤ 0.05 % by mass	–	–	–	–	CCCCN(CCCC)c1ccc(N=C2C=C(C(=O)NC)C(=O)c3ccccc32)cc1 [Pigment D-104, reference compound]
≤ 0.05 % by mass	–	–	–	–	CCN(CC)c1ccc(/N=C2\C(C#N)=C(C(=O)OC)c3nc(-c4ccc(C(C)(C)C)cc4)nn32)c(C)c1 [Pigment D-106, reference compound]

Source: patent US9482924B2, “Colored composition and image display structure” (FUJIFILM CORPORATION, priority 2011, dated 2016)
